In PubChem BioAssay (NCI):
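How tested: cells in 96-well plates exposed to compound for 48 hours at five concentrations. The concentration for full growth arrest is given as TGI.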

Legend:
Assay in all cases: NCI anticancer screen, dose series, 48 h
DLD-1 colon = tested on: DLD-1 colon
SK-MEL-5 melanoma = tested on: SK-MEL-5 melanoma
K-562 leukemia = tested on: K-562 leukemia
IGROV1 ovarian = tested on: IGROV1 ovarian
HT29 colon = tested on: HT29 colon
HOP-18 NSCLC = tested on: HOP-18 NSCLC
SF-539 CNS = tested on: SF-539 CNS
HOP-92 NSCLC = tested on: HOP-92 NSCLC
SNB-75 CNS = tested on: SNB-75 CNS
T-47D breast = tested on: T-47D breast

SMILES	TGI (DLD-1 colon)	TGI (SK-MEL-5 melanoma)	TGI (K-562 leukemia)	TGI (IGROV1 ovarian)	TGI (HT29 colon)	TGI (HOP-18 NSCLC)	TGI (SF-539 CNS)	TGI (HOP-92 NSCLC)	TGI (SNB-75 CNS)	TGI (T-47D breast)
NC1=NN(c2ccccc2)C(=O)C1C(=O)C(=O)NC1C2CC3CC(C2)CC1C3 (stereo not given)	> 100 µM	> 100 µM	> 100 µM	> 100 µM	> 100 µM	> 100 µM	> 100 µM	> 100 µM	–	–
O=S1Cc2ccccc2CS1 (stereo not given)	33.5 µM	> 100 µM	49.9 µM	> 100 µM	30.1 µM	> 100 µM	24.5 µM	34.1 µM	61.5 µM	–
C=CCOC1=C2CC[C@H](O)[C@@]2(C)CCC1=O	> 100 µM	> 100 µM	–	> 100 µM	> 100 µM	> 100 µM	> 100 µM	> 100 µM	> 100 µM	–
Cc1ccc(NC(=O)C2C(=O)C(=O)N(c3ccc(C)cc3)C2=O)cc1 (stereo not given)	> 100 µM	> 100 µM	> 100 µM	> 100 µM	> 100 µM	> 100 µM	> 100 µM	> 100 µM	–	–
COC(=O)C(=C\Sc1ccccc1)/C=C/C(=O)OC(C)(C)C	7.59 µM	28.6 µM	15.8 µM	27.5 µM	36.1 µM	30 µM	27 µM	13.3 µM	28.5 µM	–
CCOC(=O)NC(=O)c1cn(CCCCCCCCCCC(=O)N2CCN(CCn3cc(C(=O)NC(=O)OCC)c(=O)[nH]c3=O)CC2)c(=O)[nH]c1=O	> 100 µM	> 100 µM	> 100 µM	> 100 µM	> 100 µM	> 100 µM	> 100 µM	> 100 µM	> 100 µM	–
Nc1ccccc1S(=O)c1ccccc1 (stereo not given)	–	> 100 µM	> 100 µM	> 100 µM	> 1 µM	> 100 µM	> 100 µM	> 100 µM	> 100 µM	–
CCOC(=O)/C(=C/c1cc(OC)ccc1OC)CC(=O)O	> 31.6 µM	> 100 µM	> 31.6 µM	> 100 µM	> 100 µM	> 100 µM	> 100 µM	> 100 µM	> 100 µM	–
COc1ccccc1/C=C1\CCC(CN(C)C)C1=O (stereo not given)	4.98 µM	30.4 µM	11.3 µM	32.7 µM	16.1 µM	> 53.1 µM	27.2 µM	15.9 µM	17.8 µM	28.8 µM
COC(=O)C1C(=O)O[C@@H](c2ccc(OC)cc2)C1C(=O)OC (stereo not given in full)	> 100 µM	> 100 µM	> 100 µM	> 100 µM	> 100 µM	> 100 µM	> 100 µM	> 100 µM	> 100 µM	–
CC(=O)N(/N=C\c1ccc([N+](=O)[O-])cc1)c1ccccc1	> 100 µM	> 100 µM	> 100 µM	> 100 µM	> 100 µM	> 100 µM	> 100 µM	> 100 µM	> 100 µM	–
CC(=O)c1cc2c3c(c1)c1cc4c(cc1c(=O)n3CC2)OCO4	> 100 µM	> 100 µM	> 100 µM	> 100 µM	> 100 µM	76.6 µM	> 100 µM	> 100 µM	> 100 µM	–
CC(C)Cc1ccc(C(C)/C=C2\CCC(CN3CCOCC3)C2=O)cc1 (stereo not given)	9.36 µM	24.3 µM	12.4 µM	19.8 µM	16.7 µM	19.2 µM	19.8 µM	39.7 µM	22.1 µM	–
COc1ccc(C2Cc3cc(OC)c(OC)c(OC)c3C2=O)cc1 (stereo not given)	> 100 µM	> 100 µM	> 100 µM	> 100 µM	> 100 µM	> 100 µM	> 100 µM	–	> 100 µM	–
OCC1OC(n2ccc3cnccc32)CC1O (stereo not given)	> 100 µM	> 100 µM	> 100 µM	> 100 µM	> 100 µM	> 100 µM	> 100 µM	> 100 µM	> 100 µM	–
c1ccc2c(c1)nnn1c3cnccc3nc21	> 100 µM	> 100 µM	69.6 µM	> 100 µM	80.3 µM	> 100 µM	97.2 µM	67 µM	> 100 µM	–
